Laboratory results reported in patent US9788545B2, “Synergistic pesticidal compositions and related methods” (Dow AgroSciences LLC, priority 2013, dated 2017).

Experiments:
Type in all cases: in vivo
[1] = tested on: Western flower thrips, Frankliniella occidentalis; assay: Cotton leaf punch dip bioassay on larval stage 2 nymphs of Western flower thrips (Examples 7A-7D); conditions: Compound I alone, dose rate 0.04 weight %, treated cotton leaf punches
Text: (§1) The method described in Colby S. R., “Calculating Synergistic and Antagonistic Responses of Herbicide Combinations,” Weeds, 1967, 15, 20-22 was used to determine an existence of synergic effect between the sulfoximine-based nAChR agonist compound and the pesticide (I), (II) or any agriculturally acceptable salt thereof in the formulated pesticidal composition. In this method, the percent insect control of the formulated pesticidal composition as observed in the study was compared to the “expected” percent control (E) as calculated by equation (1) (hereinafter “Colby's equation”) below: […]
The active compounds were formulated in a 10% acetone solution with 0.025% non-ionic surfactant, TWEEN® 20. Cotton leaf punches were used for bioassays. Two cotton leaf punches were placed in each solution and left there for 10 minutes. Leaves were taken out of the solution, placed on a piece of filter paper in separated Petri dishes, and air dried. Each leaf disc was considered a repetition. Five larval stage 2 nymphs of Western flower thrips, Frankliniella occidentalis, were infested per repetition.

[2] = tested on: South American brown stink bug, Euschistus heros; assay: Bean-piece dip bioassay on third-instar nymphs of South American brown stink bug (Example 6); conditions: Compound I alone, dose rate 0.04 weight %, treated bean pieces
Text: as §1
The active compounds were formulated in a 10% acetone solution with 0.025% non-ionic surfactant, TWEEN® 20. Bioassays were performed for each different active solution. Bean pieces (about one inch-long) were used for the tests. Four bean pieces were placed in each tested active solution and left there for 10 minutes. Bean pieces were taken out of the active solution, and each piece was placed in a well in a 32-well tray and allowed to air dry. Three third-instar nymphs of South American brown stink bug, Euschistus heros, were infested into each well.

[3] = tested on: brown stink bug, Euschistus heros; assay: Diet-treatment bioassay on second-instar nymphs of brown stink bug (Examples 5A, 5B); conditions: Compound II alone, dose rate 0.04 weight %, applied to diet
Text: as §1
The percent control of the pesticidal composition against brown stink bug, Euschistus heros, was determined as the “Observed” action, and compared to those obtained by using about 0.04 weight % of Compound II, and using about 0.000156 weight % of sulfoxaflor alone. The “Colby's Expected Action” was calculated using Colby's equation as discussed previously.

CCN(C(=O)CCSCCC(F)(F)F)c1cn(-c2cccnc2)nc1Cl [Compound I, N-(3-chloro-1-(pyridin-3-yl)-1H-pyrazol-4-yl)-N-ethyl-3-((3,3,3-trifluoropropyl)thio)propanamide]
% Control Three Days After Treatment [1]: 0%
% Control Four Days After Treatment [2]: 0%

CCN(C(=O)CC[S+]([O-])CCC(F)(F)F)c1cn(-c2cccnc2)nc1Cl (stereo not drawn) [Compound II, N-(3-chloro-1-(pyridin-3-yl)-1H-pyrazol-4-yl)-N-ethyl-3-((3,3,3-trifluoropropyl)sulfinyl)propanamide]
% Control Six Days After Treatment [3]: no control
